Measured values taken from ChEMBL document CHEMBL1157568, “Toward biophysical probes for the 5-HT3 receptor: structure-activity relationship study of granisetron derivatives” (J Med Chem, 2010).
Calls of active or inactive are those of the source. No cut-off for these calls is given here.

How the values were obtained:
[1] = molecular target: T1, 5-hydroxytryptamine receptor 3A (Homo sapiens, UniProt P46098); assay: Binding affinity to human 5HT3A receptor in HEK293 cells assessed as cell labeling by confocal microscopy; type: cell-based
T1 sequence (P46098 whole entry): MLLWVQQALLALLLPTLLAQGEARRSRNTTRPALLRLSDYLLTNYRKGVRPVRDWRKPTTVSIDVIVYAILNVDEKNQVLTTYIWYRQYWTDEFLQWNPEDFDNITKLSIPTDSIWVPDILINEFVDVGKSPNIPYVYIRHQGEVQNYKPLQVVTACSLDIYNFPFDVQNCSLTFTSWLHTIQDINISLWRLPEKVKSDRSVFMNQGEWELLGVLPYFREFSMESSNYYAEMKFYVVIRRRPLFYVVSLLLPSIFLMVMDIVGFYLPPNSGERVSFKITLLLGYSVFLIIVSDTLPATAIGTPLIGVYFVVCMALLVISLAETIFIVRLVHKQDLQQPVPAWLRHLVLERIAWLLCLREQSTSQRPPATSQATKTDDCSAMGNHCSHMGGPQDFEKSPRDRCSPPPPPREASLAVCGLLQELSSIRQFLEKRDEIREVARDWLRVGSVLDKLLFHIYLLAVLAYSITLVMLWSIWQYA

[2] = molecular target: T2, 5-hydroxytryptamine receptor 3A (Homo sapiens) (UniProt P46098); assay: Binding affinity to human 5HT3A receptor in HEK293 cells assessed as cell labeling by confocal microscopy in presence of quipazine; type: cell-based
T2 sequence (whole entry): T1 sequence (P46098 whole entry)

Ki [1]: 2.8 nM
Activity [2]: Active
SMILES: Cc1cc(C)n2c1C=C1C=CC(NCC(=O)NCCCn3nc(C(=O)N[C@H]4C[C@H]5CCC[C@@H](C4)N5C)c4ccccc43)=[N+]1[B-]2(F)F
